Results taken from patent US12466800B2, “N-((1,2,3,5,6,7-hexahydro-S-indacen-4-yl)carbamoyl)-4, 5, 6, 7-tetrahydrobenzofuran-2-sulfonamide derivatives and related compounds as NLPR3 modulators for the treatment of multiple sclerosis (MS)” (Zomagen Biosciences Ltd, priority 2019, dated 2025).
pIC50: −log10 of the molar value.

What follows are compounds tested on IL-1b (assay: Mouse BMDM IL-1b Assay). Conditions: Macrophage; mouse bone marrow derived macrophages (C57BL6); 200 ng/mL LPS 3 h, compound 30 min, 5 mM ATP 45 min; IL-1b ELISA of supernatant.
Type: cell-based
How it was run: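 C57BL6 bone marrow macrophages, differentiated 7 days with 20 ng/mL MCSF, were primed with 200 ng/mL LPS for 3 h at 37° C, given compound for 30 min, then 5 mM ATP for 45 min. Supernatant IL-1b was measured by ELISA against standards; IC50 fitted by Levenberg-Marquardt.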

Compared with `CC(C)c1cc(F)cc(C(C)C)c1NC(=O)NS(=O)(=O)c1cc2c(o1)CCCC2(C)O` (stereo not drawn) [Compound 64, N-((4-fluoro-2,6-diisopropylphenyl)carbamoyl)-4-hydroxy-4-methyl-4,5,6,7-tetrahydrobenzofuran-2-sulfonamide], `CC(C)c1cc(Br)cc(C(C)C)c1NC(=O)NS(=O)(=O)c1cc2c(o1)CCCC2(C)O` (stereo not drawn) [Compound 70, N-((4-bromo-2,6-diisopropylphenyl)carbamoyl)-4-hydroxy-4-methyl-4,5,6,7-tetrahydrobenzofuran-2-sulfonamide] is lower in pIC50: over 7.00 for the first, 6.00 to 7.00 for the second.

First: CC1Cc2oc(S(=O)(=O)NC(=O)Nc3c4c(cc5c3CCC5)CCC4)cc2C(O)C1 (stereo not drawn) [Compound 18, N-((1,2,3,5,6,7-hexahydro-s-indacen-4-yl)carbamoyl)-4-hydroxy-6-methyl-4,5,6,7-tetrahydrobenzofuran-2-sulfonamide]
Second: CC1(O)CCCCc2oc(S(=O)(=O)NC(=O)Nc3c4c(cc5c3CCC5)CCC4)cc21 (stereo not drawn) [Compound 24, N-((1,2,3,5,6,7-hexahydro-s-indacen-4-yl)carbamoyl)-4-hydroxy-4-methyl-5,6,7,8-tetrahydro-4H-cyclohepta[b]furan-2-sulfonamide]
The pIC50 of the first is lower: 6.00 to 7.00 for the first, over 7.00 for the second. The second is the more potent here.

`CC1(O)CCCc2oc(S(=O)(=O)NC(=O)Nc3c4c(c(Br)c5c3CCC5)CCC4)cc21` (stereo not drawn) [Compound 40, N-((8-bromo-1,2,3,5,6,7-hexahydro-s-indacen-4-yl)carbamoyl)-4-hydroxy-4-methyl-4,5,6,7-tetrahydrobenzofuran-2-sulfonamide] and `CC1(O)CCCCc2oc(S(=O)(=O)NC(=O)Nc3c4c(c(Br)c5c3CCC5)CCC4)cc21` (stereo not drawn) [Compound 108, N-((8-bromo-1,2,3,5,6,7-hexahydro-s-indacen-4-yl)carbamoyl)-4-hydroxy-4-methyl-5,6,7,8-tetrahydro-4H-cyclohepta[b]furan-2-sulfonamide] cannot be ordered by pIC50: over 7.00 for the first, over 7.00 for the second.

First: O=C(Nc1c2c(cc3c1CCC3)CCC2)NS(=O)(=O)c1cc2c(o1)CCC/C2=N/O [Compound 36, (Z)—N-((1,2,3,5,6,7-hexahydro-s-indacen-4-yl)carbamoyl)-4-(hydroxyimino)-4,5,6,7-tetrahydrobenzofuran-2-sulfonamide]
Second: CO/N=C1/CCCc2oc(S(=O)(=O)NC(=O)Nc3c4c(cc5c3CCC5)CCC4)cc21 [Compound 41, (Z)-N-((1,2,3,5,6,7-hexahydro-s-indacen-4-yl)carbamoyl)-4-(methoxyimino)-4,5,6,7-tetrahydrobenzofuran-2-sulfonamide]
The pIC50 of the first is higher: over 7.00 for the first, 6.00 to 7.00 for the second.

`CC(C)c1ccc(Cl)c(C(C)C)c1NC(=O)NS(=O)(=O)c1cc2c(o1)CCC/C2=N/O` [Compound 79, (Z)-N-((3-chloro-2,6-diisopropylphenyl)carbamoyl)-4-(hydroxyimino)-4,5,6,7-tetrahydrobenzofuran-2-sulfonamide] and `CC(C)c1ccc(Cl)c(C(C)C)c1NC(=O)NS(=O)(=O)c1cc2c(o1)CCC/C2=N\O` [Compound 80, (E)-N-((3-chloro-2,6-diisopropylphenyl)carbamoyl)-4-(hydroxyimino)-4,5,6,7-tetrahydrobenzofuran-2-sulfonamide] fall in the same range of pIC50: 6.00 to 7.00 for the first, 6.00 to 7.00 for the second.

First: Cc1c(S(=O)(=O)NC(=O)Nc2c3c(cc4c2CCC4)CCC3)oc2c1C(=O)CCC2 [Compound 91, N-((1,2,3,5,6,7-hexahydro-s-indacen-4-yl)carbamoyl)-3-methyl-4-oxo-4,5,6,7-tetrahydrobenzofuran-2-sulfonamide]
Second: CN1CCc2oc(S(=O)(=O)NC(=O)Nc3c4c(cc5c3CCC5)CCC4)cc2C1=O [Compound 112, N-((1,2,3,5,6,7-hexahydro-s-indacen-4-yl)carbamoyl)-5-methyl-4-oxo-4,5,6,7-tetrahydrofuro[3,2-c]pyridine-2-sulfonamide]
The pIC50 of the first is higher: over 7.00 for the first, 6.00 to 7.00 for the second.

`CC(C)c1ccc(F)c(C(C)C)c1NC(=O)NS(=O)(=O)c1cc2c(o1)CCCCC2(C)O` (stereo not drawn) [Compound 110, N-((3-fluoro-2,6-diisopropylphenyl)carbamoyl)-4-hydroxy-4-methyl-5,6,7,8-tetrahydro-4H-cyclohepta[b]furan-2-sulfonamide] and `CC(C)c1cccc(C(C)C)c1NC(=O)NS(=O)(=O)c1cc2c(o1)CCCCC2(C)O` (stereo not drawn) [Compound 109, N-((2,6-diisopropylphenyl)carbamoyl)-4-hydroxy-4-methyl-5,6,7,8-tetrahydro-4H-cyclohepta[b]furan-2-sulfonamide] fall in the same range of pIC50: 6.00 to 7.00 for the first, 6.00 to 7.00 for the second.

First: O=C(Nc1c2c(c(F)c3c1CCC3)CCC2)NS(=O)(=O)c1cc2c(o1)CCC/C2=N\O [Compound 90, (E)-N-((8-fluoro-1,2,3,5,6,7-hexahydro-s-indacen-4-yl)carbamoyl)-4-(hydroxyimino)-4,5,6,7-tetrahydrobenzofuran-2-sulfonamide]
Second: O=C(Nc1c2c(c(Cl)c3c1CCC3)CCC2)NS(=O)(=O)c1cc2c(o1)CCC/C2=N\O [Compound 96, (E)-N-((8-chloro-1,2,3,5,6,7-hexahydro-s-indacen-4-yl)carbamoyl)-4-(hydroxyimino)-4,5,6,7-tetrahydrobenzofuran-2-sulfonamide]
The pIC50 of the first is higher: over 7.00 for the first, 6.00 to 7.00 for the second.

`CC(C)c1cccc(C(C)C)c1CC(=O)NS(=O)(=O)c1cc2c(o1)CCC(C)(C)C2(C)O` (stereo not drawn) [Compound 75, 2-(2,6-diisopropylphenyl)-N-((4-hydroxy-4,5,5-trimethyl-4,5,6,7-tetrahydrobenzofuran-2-yl)sulfonyl)acetamide] and `CC(C)c1cccc(C(C)C)c1CC(=O)NS(=O)(=O)c1cc2c(o1)CCC(C)(C)C2=O` [Compound 76, 2-(2,6-diisopropylphenyl)-N-((5,5-dimethyl-4-oxo-4,5,6,7-tetrahydrobenzofuran-2-yl)sulfonyl)acetamide] fall in the same range of pIC50: 5.00 to 6.00 for the first, 5.00 to 6.00 for the second.

First: CC(C)c1ccc(F)c(C(C)C)c1NC(=O)NS(=O)(=O)c1cc2c(o1)CCCC2O (stereo not drawn) [Compound 67, N-((3-fluoro-2,6-diisopropylphenyl)carbamoyl)-4-hydroxy-4,5,6,7-tetrahydrobenzofuran-2-sulfonamide]
Second: CC(C)c1ccc(Cl)c(C(C)C)c1NC(=O)NS(=O)(=O)c1cc2c(o1)CCCC2O (stereo not drawn) [Compound 65, N-((3-chloro-2,6-diisopropylphenyl)carbamoyl)-4-hydroxy-4,5,6,7-tetrahydrobenzofuran-2-sulfonamide]
The pIC50 of the first is lower: 6.00 to 7.00 for the first, over 7.00 for the second. The second is the more potent here.

First: CC1(C)CCc2oc(S(=O)(=O)NC(=O)Nc3c4c(cc5c3CCC5)CCC4)cc2C1=NO [Compound 50, N-((1,2,3,5,6,7-hexahydro-s-indacen-4-yl)carbamoyl)-4-(hydroxyimino)-5,5-dimethyl-4,5,6,7-tetrahydrobenzofuran-2-sulfonamide]
Second: CC1(C)CCc2oc(S(=O)(=O)NC(=O)Nc3c4c(cc5c3CCC5)CCC4)cc2C1=O [Compound 13, N-((1,2,3,5,6,7-hexahydro-s-indacen-4-yl)carbamoyl)-5,5-dimethyl-4-oxo-4,5,6,7-tetrahydrobenzofuran-2-sulfonamide]
The pIC50 of the first is higher: over 7.00 for the first, 6.00 to 7.00 for the second.

`CC(C)c1cc(Cl)cc(C(C)C)c1NC(=O)NS(=O)(=O)c1cc2c(o1)CCC/C2=N/O` [Compound 77, (Z)-N-((4-chloro-2,6-diisopropylphenyl)carbamoyl)-4-(hydroxyimino)-4,5,6,7-tetrahydrobenzofuran-2-sulfonamide] and `CCOC(=O)C#CC1(O)CCCc2oc(S(=O)(=O)NC(=O)Nc3c4c(cc5c3CCC5)CCC4)cc21` (stereo not drawn) [Compound 105, ethyl 3-(2-(N-((1,2,3,5,6,7-hexahydro-s-indacen-4-yl)carbamoyl)sulfamoyl)-4-hydroxy-4,5,6,7-tetrahydrobenzofuran-4-yl)propiolate] fall in the same range of pIC50: 6.00 to 7.00 for the first, 6.00 to 7.00 for the second.
